According to patent US10287301B2 (Achillion Pharmaceuticals, Inc., priority 2015, dated 2019):
Like-named read-outs stand apart in the source and are kept apart here.

Molecular target: Human Factor D (Homo sapiens (Human), UniProt P00746)
Assay: Human Factor D Assay
Type: biochemical
Details: read-out: IC50 (Stars)
Outline: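 Thioesterase activity monitored with Z-L-Lys-SBzl plus Ellman's reagent (DTNB), each 100 μM final, after 5 min room-temperature compound preincubation of 80 nM human serum Factor D in pH 7.5 Tris (50 mM)/1M NaCl.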

[1] = Table 3, Human Factor D 80 nM, substrate Z-L-Lys-SBzl

Chain of Human Factor D (P00746 26-253): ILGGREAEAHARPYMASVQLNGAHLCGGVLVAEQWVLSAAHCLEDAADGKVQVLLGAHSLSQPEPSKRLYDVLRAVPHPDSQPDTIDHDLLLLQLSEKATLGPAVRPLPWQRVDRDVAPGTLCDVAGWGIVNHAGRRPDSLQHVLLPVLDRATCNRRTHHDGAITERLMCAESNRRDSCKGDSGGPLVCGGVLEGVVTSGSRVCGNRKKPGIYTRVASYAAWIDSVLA

CC(=O)c1nn(CC(=O)N2[C@@H]3C[C@@H]3C[C@H]2C(=O)Nc2cncc(Cl)n2)c2ccc(-c3cnc(C)nc3)cc12 [Compound 375, (1R,3S,5R)-2-(2-(3-Acetyl-5-(2-methylpyrimidin-5-yl)-1H-indazol-1-yl)acetyl)-N-(6-chloropyrazin-2-yl)-2-azabicyclo[3.1.0]hexane-3-carboxamide]
IC50 [1]: < 1000 nM

Cc1ncc(-c2ccc3c(c2)c(C(C)O)nn3CC(=O)N2C[C@H](F)C[C@H]2C(=O)Nc2cccc(Br)n2)cn1 (stereo partly drawn) [Compound 376, (2S,4R)-N-(6-bromopyridin-2-yl)-4-fluoro-1-(2-(3-(1-hydroxyethyl)-5-(2-methylpyrimidin-5-yl)-1H-indazol-1-yl)acetyl)pyrrolidine-2-carboxamide]
IC50: 1000 to 10000 nM

CC(=O)c1nn(CC(=O)N2C[C@H](F)C[C@H]2C(=O)Nc2ccnc(OCC(F)(F)F)n2)c2ccc(-c3cnc(C)nc3)cc12 [Compound 377, (2S,4R)-1-(2-(3-Acetyl-5-(2-methylpyrimidin-5-yl)-1H-indazol-1-yl)acetyl)-4-fluoro-N-(2-(2,2,2-trifluoroethoxy)pyrimidin-4-yl)pyrrolidine-2-carboxamide]
IC50 [1]: < 1000 nM

CC(=O)c1nn(CC(=O)N2C[C@H](F)C[C@H]2C(=O)Nc2ncn(CC(F)(F)F)n2)c2ccc(-c3cnc(C)nc3)cc12 [Compound 378, (2S,4R)-1-(2-(3-Acetyl-5-(2-methylpyrimidin-5-yl)-1H-indazol-1-yl)acetyl)-4-fluoro-N-(1-(2,2,2-trifluoroethyl)-1H-1,2,4-triazol-3-yl)pyrrolidine-2-carboxamide]
IC50 [1]: < 1000 nM

CNc1ncc(-c2ccc3c(c2)c(C(C)=O)nn3CC(=O)N2[C@@H]3C[C@@H]3C[C@H]2C(=O)Nc2cncc(Br)n2)cn1 [Compound 379, (1R,3S,5R)-2-(2-(3-Acetyl-5-(2-(methylamino)pyrimidin-5-yl)-1H-indazol-1-yl)acetyl)-N-(6-bromopyrazin-2-yl)-2-azabicyclo[3.1.0]hexane-3-carboxamide]
IC50 [1]: < 1000 nM

CC(=O)c1nn(CC(=O)N2[C@@H]3C[C@@H]3C[C@H]2C(=O)Nc2cncc(Br)n2)c2ccc(-c3cnc(NC4CC4)nc3)cc12 [Compound 380, (1R,3S,5R)-2-(2-(3-Acetyl-5-(2-(cyclopropylamino)pyrimidin-5-yl)-1H-indazol-1-yl)acetyl)-N-(6-bromopyrazin-2-yl)-2-azabicyclo[3.1.0]hexane-3-carboxamide]
IC50 [1]: < 1000 nM

CC(=O)c1nn(CC(=O)N2C[C@H](F)C[C@H]2C(=O)Nc2cc(Br)n(C)n2)c2ccc(-c3cnc(C)nc3)cc12 [Compound 381, (2S,4R)-1-(2-(3-Acetyl-5-(2-methylpyrimidin-5-yl)-1H-indazol-1-yl)acetyl)-N-(5-bromo-1-methyl-1H-pyrazol-3-yl)-4-fluoropyrrolidine-2-carboxamide]
IC50 [1]: < 1000 nM

CC(=O)c1nn(CC(=O)N2[C@H]3C[C@@]3(C)C[C@H]2C(=O)Nc2cccc(Br)n2)c2ccc(-c3cnc(C)nc3)cc12 [Compound 382, (1S,3S,5S)-2-(2-(3-Acetyl-5-(2-methylpyrimidin-5-yl)-1H-indazol-1-yl)acetyl)-N-(6-bromopyridin-2-yl)-5-methyl-2-azabicyclo[3.1.0]hexane-3-carboxamide]
IC50 [1]: < 1000 nM

CC(=O)c1nn(CC(=O)N2[C@H]3C[C@@]3(CO)C[C@H]2C(=O)Nc2cccc(Br)n2)c2ccc(-c3cnc(C)nc3)cc12 [Compound 383, (1S,3S,5R)-2-(2-(3-Acetyl-5-(2-methylpyrimidin-5-yl)-1H-indazol-1-yl)acetyl)-N-(6-bromopyridin-2-yl)-5-(hydroxymethyl)-2-azabicyclo[3.1.0]hexane-3-carboxamide]
IC50 [1]: < 1000 nM

COc1ncc(-c2ccc3c(c2)c(C(C)=O)nn3CC(=O)N2C[C@H](F)C[C@H]2C(=O)Nc2cccc(Br)n2)cn1 [Compound 384, (2S,4R)-1-(2-(3-Acetyl-5-(2-methoxypyrimidin-5-yl)-1H-indazol-1-yl)acetyl)-N-(6-bromopyridin-2-yl)-4-fluoropyrrolidine-2-carboxamide]
IC50 [1]: < 1000 nM

COc1ncc(-c2ccc3c(c2)c(C(C)=O)nn3CC(=O)N2[C@@H]3C[C@@H]3C[C@H]2C(=O)Nc2cncc(Br)n2)cn1 [Compound 385, (1R,3S,5R)-2-(2-(3-Acetyl-5-(2-methoxypyrimidin-5-yl)-1H-indazol-1-yl)acetyl)-N-(6-bromopyrazin-2-yl)-2-azabicyclo[3.1.0]hexane-3-carboxamide]
IC50 [1]: < 1000 nM

CC(=O)c1nn(CC(=O)N2C[C@H](F)C[C@H]2C(=O)Nc2cccc(Br)n2)c2cc(CN(C)C)c(-c3cnc(C)nc3)cc12 [Compound 387, (2S,4R)-1-(2-(3-Acetyl-6-((dimethylamino)methyl)-5-(2-methylpyrimidin-5-yl)-1H-indazol-1-yl)acetyl)-N-(6-bromopyridin-2-yl)-4-fluoropyrrolidine-2-carboxamide]
IC50 [1]: < 1000 nM

CCc1ncc(-c2ccc3c(c2)c(C(C)=O)nn3CC(=O)N2C[C@H](F)C[C@H]2C(=O)Nc2cncc(Br)n2)cn1 [Compound 388, (2S,4R)-1-(2-(3-Acetyl-5-(2-ethylpyrimidin-5-yl)-1H-indazol-1-yl)acetyl)-N-(6-bromopyrazin-2-yl)-4-fluoropyrrolidine-2-carboxamide]
IC50 [1]: < 1000 nM

CC(=O)c1nn(CC(=O)N2C[C@H](F)C[C@H]2C(=O)Nc2cncc(Br)n2)c2ccc(-c3cnc(C(C)C)nc3)cc12 [Compound 389, (2S,4R)-1-(2-(3-Acetyl-5-(2-isopropylpyrimidin-5-yl)-1H-indazol-1-yl)acetyl)-N-(6-bromopyrazin-2-yl)-4-fluoropyrrolidine-2-carboxamide]
IC50 [1]: < 1000 nM

CNc1ncc(-c2ccc3c(c2)c(C(C)=O)nn3CC(=O)N2C[C@H](F)C[C@H]2C(=O)Nc2cccc(Br)n2)cn1 [Compound 390, (2S,4R)-1-(2-(3-Acetyl-5-(2-(methylamino)pyrimidin-5-yl)-1H-indazol-1-yl)acetyl)-N-(6-bromopyridin-2-yl)-4-fluoropyrrolidine-2-carboxamide]
IC50 [1]: < 1000 nM

CC(=O)c1nn(CC(=O)N2C[C@H](F)C[C@H]2C(=O)Nc2cccc(Br)n2)c2ccc(-c3cnc(CC#N)nc3)cc12 [Compound 391, (2S,4R)-1-(2-(3-Acetyl-5-(2-(cyanomethyl)pyrimidin-5-yl)-1H-indazol-1-yl)acetyl)-N-(6-bromopyridin-2-yl)-4-fluoropyrrolidine-2-carboxamide]
IC50 [1]: < 1000 nM

CC(=O)c1nn(CC(=O)N2[C@H](C(=O)Nc3cccc(Br)n3)C[C@@]3(CO)C[C@@H]23)c2ccc(-c3cnc(C)nc3)cc12 [Compound 392, (1R,3S,5S)-2-(2-(3-Acetyl-5-(2-Methylpyrimidin-5-yl)-1H-indazol-1-yl)acetyl)-N-(6-bromopyridin-2-yl)-5-(hydroxymethyl)-2-azabicyclo[3.1.0]hexane-3-carboxamide]
IC50 [1]: < 1000 nM

CO[C@H]1[C@@H](C(=O)Nc2cccc(Br)n2)N(C(=O)Cn2nc(C(C)=O)c3cc(-c4cnc(C)nc4)ccc32)C[C@@H]1F [Compound 393, (2S,3S,4S)-1-(2-(3-Acetyl-5-(2-methylpyrimidin-5-yl)-1H-indazol-1-yl)acetyl)-N-(6-bromopyridin-2-yl)-4-fluoro-3-methoxypyrrolidine-2-carboxamide]
IC50 [1]: < 1000 nM

COc1ccc(NC(=O)[C@@H]2C[C@@H](F)CN2C(=O)Cn2nc(C(C)=O)c3cc(-c4cnc(C)nc4)ccc32)nc1Br [Compound 394, (2S,4R)-1-(2-(3-Acetyl-5-(2-methylpyrimidin-5-yl)-1H-indazol-1-yl)acetyl)-N-(6-bromo-5-methoxypyridin-2-yl)-4-fluoropyrrolidine-2-carboxamide]
IC50 [1]: < 1000 nM

CC(=O)c1nn(CC(=O)N2C[C@@](F)(CN)C[C@H]2C(=O)Nc2cccc(Br)n2)c2ccc(-c3cnc(C)nc3)cc12 [Compound 395, (2S,4S)-1-(2-(3-Acetyl-5-(2-methylpyrimidin-5-yl)-1H-indazol-1-yl)acetyl)-4-(aminomethyl)-N-(6-bromopyridin-2-yl)-4-fluoropyrrolidine-2-carboxamide]
IC50 [1]: < 1000 nM

COC(=O)c1cc(Cl)nc(NC(=O)[C@@H]2C[C@@H](F)CN2C(=O)Cn2nc(C(C)=O)c3cc(-c4cnc(C)nc4)ccc32)c1 [Compound 396, Methyl 2-((2S,4R)-1-(2-(3-Acetyl-5-(2-methylpyrimidin-5-yl)-1H-indazol-1-yl)acetyl)-4-fluoropyrrolidine-2-carboxamido)-6-chloroisonicotinate]
IC50 [1]: < 1000 nM

CC(=O)c1nn(CC(=O)N2C[C@H](F)C[C@H]2C(=O)Nc2ccc(F)c(Br)n2)c2ccc(-c3cnc(C)nc3)cc12 [Compound 397, (2S,4R)-1-(2-(3-Acetyl-5-(2-methylpyrimidin-5-yl)-1H-indazol-1-yl)acetyl)-N-(6-bromo-5-fluoropyridin-2-yl)-4-fluoropyrrolidine-2-carboxamide]
IC50 [1]: < 1000 nM

CC(=O)c1nn(CC(=O)N2C[C@H](F)C[C@H]2C(=O)Nc2cncc(Br)n2)c2ccc(-c3cnc(CO)nc3)cc12 [Compound 398, (2S,4R)-1-(2-(3-Acetyl-5-(2-(hydroxymethyl)pyrimidin-5-yl)-1H-indazol-1-yl)acetyl)-N-(6-bromopyrazin-2-yl)-4-fluoropyrrolidine-2-carboxamide]
IC50 [1]: < 1000 nM

CC(=O)c1nn(CC(=O)N2CC(F)(CN)C[C@H]2C(=O)Nc2cccc(Br)n2)c2ccc(-c3cnc(C)nc3)cc12 (stereo partly drawn) [Compound 399, (2S)-1-(2-(3-acetyl-5-(2-methylpyrimidin-5-yl)-1H-indazol-1-yl)acetyl)-4-(aminomethyl)-N-(6-bromopyridin-2-yl)-4-fluoropyrrolidine-2-carboxamide]
IC50 [1]: < 1000 nM

CC(=O)c1nn(CC(=O)N2C[C@H](F)C[C@H]2C(=O)Nc2ccn(CC(F)F)n2)c2ccc(-c3cnc(C)nc3)cc12 [Compound 401, (2S,4R)-1-(2-(3-Acetyl-5-(2-methylpyrimidin-5-yl)-1H-indazol-1-yl)acetyl)-N-(1-(2,2-difluoroethyl)-1H-pyrazol-3-yl)-4-fluoropyrrolidine-2-carboxamide]
IC50 [1]: < 1000 nM
